Experimental data reported in patent publication US11229633B2, “Arimoclomol formulation” (Orphazyme A/S, priority 2014, dated 2022).

How the values were obtained:
human OAT3 = target: T1, human OAT3 (Homo sapiens, UniProt Q8TCC7); assay: Uptake transporter substrate feasibility assay, OAT3; type: in vitro ADME; set-up: key to Substrate: NIO: No interaction observed
T1 construct: expressed in transfected cells; host or cells: MDCKII (protocol UPT-MDCKII-OAT3-E3S; control: parental MDCKII)
T1 sequence (Q8TCC7 1-542): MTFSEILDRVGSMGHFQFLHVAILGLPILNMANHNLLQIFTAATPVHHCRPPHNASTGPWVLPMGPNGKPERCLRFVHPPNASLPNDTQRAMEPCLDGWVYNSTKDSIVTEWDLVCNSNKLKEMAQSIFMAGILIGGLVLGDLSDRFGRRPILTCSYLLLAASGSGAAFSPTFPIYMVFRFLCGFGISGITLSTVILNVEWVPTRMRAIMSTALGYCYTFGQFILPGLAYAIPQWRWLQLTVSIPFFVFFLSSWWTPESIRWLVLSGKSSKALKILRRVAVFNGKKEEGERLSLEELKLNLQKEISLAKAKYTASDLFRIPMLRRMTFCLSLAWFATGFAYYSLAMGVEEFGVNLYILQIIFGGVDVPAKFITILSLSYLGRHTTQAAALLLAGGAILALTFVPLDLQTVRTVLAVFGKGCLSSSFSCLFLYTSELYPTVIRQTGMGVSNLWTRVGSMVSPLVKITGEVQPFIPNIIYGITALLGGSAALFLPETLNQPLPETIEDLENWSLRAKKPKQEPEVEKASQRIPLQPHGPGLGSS
Protocol: Uptake experiments were performed using CHO, MDCKII, or HEK293 cells stably expressing the respective uptake transporters.
Cells were cultured at 37±1° C. in an atmosphere of 95:5 air:CO2 as described in Table 4 and were plated onto standard 24-well tissue culture plates at 2×10^5 cells/well. The uptake of the TA was determined using cells overexpressing the respective uptake transporter and control cells, at two incubation time points (2 and 20 min) and at two concentrations (1 and 10 μM) of TA to determine whether or not the TA was actively taken up into the cells.
Before the experiment, the medium was removed and the cells were washed twice with 300 μl of HK buffer (pH 7.4) (prepared from Sigma chemicals). Cellular uptake of TA into the cells was measured by adding 300 μl of HK buffer containing TA and incubating them at 37±1° C. Reactions were quenched by removing the HK buffer containing the TA and the cells were washed twice with 300 μl of HK buffer. Cells were lysed by adding 300 μl of MeOH:H2O (2:1) and incubated for 20 minutes at 4±1° C. The amount of TA in the cell lysate was determined by LC-MS/MS. The amount of protein in each well was quantified using the BCA kit for protein determination (Sigma-Aldrich, St Louis, Mo., USA). Uptake of the probe substrate in control cells provided background activity values for all data points. Incubation without reference inhibitor (solvent only) provided 100% activity values. A reference inhibitor served as positive control for inhibition.
The fold accumulation value was defined as the ratio of uptake of TA or probe substrate into transfected and control cells:
[formula] UPTTRP: accumulated amount of TA or probe substrate in transfected cells normalized by protein content [pmol/mg protein] UPTCTL: accumulated amount of TA or probe substrate in control cells normalized by protein content [pmol/mg protein]
If the fold accumulation is >2 and can be inhibited by a known inhibitor of the transporter, the TA can be considered to be a substrate of the respective transporter.

[1] = Physical properties of the drug substance; type: physicochemical

Question: What does the source list for `[O-][n+]1cccc(C(Cl)=NOCC(O)CN2CCCCC2)c1` (stereo not shown) [Arimoclomol, N-[2-hydroxy-3-(1-piperidinyl)-propoxy]-pyridine-1-oxide-3-carboximidoyl chloride]?
Answer: Substrate of the transporter (in words) (human OAT3): not a substrate; Fold accumulation (human OAT3; 1 μM, 2 min): 0.86; Fold accumulation (human OAT3; 1 μM, 20 min): 0.86; Fold accumulation (human OAT3; 10 μM, 2 min): 0.85; Fold accumulation (human OAT3; 10 μM, 20 min): 0.82; Fold accumulation (human OAT3; 1 and 10 μM, 2 and 20 min): < 2; Substrate (human OAT3; Table 2): NIO; Carr's Index ([1]; drug substance): 44.4%; bulk density ([1]; drug substance): 0.214 g/cm3; tapped density ([1]; following 250 taps): 0.386 g/cm3
